Reference: PMC12298351, “Novel 3,19-(N-Phenyl-3-(4-fluorophenyl)-pyrazole) Acetal of Andrographolide Promotes Cell Cycle Arrest and Apoptosis in MDA-MB-231 Breast Cancer Cells” (Pharmaceuticals, 2025)

Assays:
HCT-116 = format: cell-based; conditions: HCT-116, Colon
TK-10 = format: cell-based; conditions: TK-10, Renal
MOLT-4 = conditions: MOLT-4, Leukemia
HCC-2998 = conditions: HCC-2998, Colon
HCT-15 = conditions: HCT-15, Colon
KM12 = conditions: KM12, Colon
SF-268 = conditions: SF-268, CNS
SF-539 = conditions: SF-539, CNS
SNB-75 = conditions: SNB-75, CNS
U251 = conditions: U251, CNS
MALME-3M = conditions: Melanoma
SK-MEL-28 = conditions: SK-MEL-28, Melanoma
UACC-257 = conditions: UACC-257, Melanoma
IGROV1 = conditions: IGROV1, Ovarian
OVCAR-3 = conditions: OVCAR-3, Ovarian
A498 = conditions: A498, Renal
CAKI-1 = conditions: CAKI-1, Renal
PC-3 = conditions: PC-3, Prostate
MDA-MB-468 = conditions: MDA-MB-468, Breast
[1] = read-out: 50% lethal concentration (LC50)
[2] = read-out: 50% lethal concentration (LC50), Leukemia
[3] = read-out: 50% lethal concentration (LC50), Breast

Compound: C=C1CCC2C3(C)COC(c4cn(-c5ccccc5)nc4-c4cccc(Cl)c4)OC3CCC2(C)C1CC=C1C(=O)OCC1O (stereo not drawn) [1d]
- GI50 (HCT-116): 1.04 µM
- Total growth inhibition (TGI) (HCT-116): 3.48 µM
- CC50 (HCT-116; [1]): 45.2 µM
- GI50 (TK-10): 2.14 µM
- Total growth inhibition (TGI) (TK-10): 4.56 µM
- CC50 (TK-10; [1]): 9.71 µM
- GI50 (HL-60(TB); Leukemia): 1.38 µM
- Total growth inhibition (TGI) (HL-60(TB); Leukemia): 4.97 µM
- CC50 (HL-60(TB); [2]): > 100 µM
- GI50 (MOLT-4): 1.14 µM
- Total growth inhibition (TGI) (MOLT-4): 3.82 µM
- CC50 (MOLT-4; [1]): > 100 µM
- GI50 (SR; Leukemia): 1.29 µM
- Total growth inhibition (TGI) (SR; Leukemia): 4.03 µM
- CC50 (SR; [2]): > 100 µM
- Total growth inhibition (TGI) (EKVX; Non-Small Cell Lung): 4.95 µM
- GI50 (EKVX; Non-Small-Cell Lung): 2.21 µM
- CC50 (EKVX; read-out: 50% lethal concentration (LC50), Non-Small Cell Lung): > 100 µM
- Total growth inhibition (TGI) (HOP-62; HOP-62, Non-Small Cell Lung): 4.29 µM
- GI50 (HOP-62; HOP-62, Non-Small-Cell Lung): 1.78 µM
- CC50 (HOP-62; read-out: 50% lethal concentration (LC50), HOP-62, Non-Small Cell Lung): > 100 µM
- Total growth inhibition (TGI) (HOP-92; HOP-92, Non-Small Cell Lung): 3.11 µM
- GI50 (HOP-92; HOP-92, Non-Small-Cell Lung): 1.56 µM
- CC50 (HOP-92; read-out: 50% lethal concentration (LC50), HOP-92, Non-Small Cell Lung): 6.2 µM
- Total growth inhibition (TGI) (NCI-H460; NCI-H460, Non-Small Cell Lung): 3.34 µM
- GI50 (NCI-H460; NCI-H460, Non-Small-Cell Lung): 1.68 µM
- CC50 (NCI-H460; read-out: 50% lethal concentration (LC50), NCI-H460, Non-Small Cell Lung): 6.66 µM
- Total growth inhibition (TGI) (NCI-H522; NCI-H522, Non-Small Cell Lung): 2.95 µM
- GI50 (NCI-H522; NCI-H522, Non-Small-Cell Lung): 1.54 µM
- CC50 (NCI-H522; read-out: 50% lethal concentration (LC50), NCI-H522, Non-Small Cell Lung): 5.65 µM
- GI50 (HCC-2998): 1.81 µM
- Total growth inhibition (TGI) (HCC-2998): 3.37 µM
- GI50 (HCT-15): 1.58 µM
- Total growth inhibition (TGI) (HCT-15): 3.47 µM
- CC50 (HCT-15; [1]): 7.64 µM
- GI50 (KM12): 1.67 µM
- Total growth inhibition (TGI) (KM12): 3.32 µM
- GI50 (SF-268): 1.6 µM
- Total growth inhibition (TGI) (SF-268): 3.34 µM
- CC50 (SF-268; [1]): 6.94 µM
- GI50 (SF-539): 1.63 µM
- Total growth inhibition (TGI) (SF-539): 3.02 µM
- CC50 (SF-539; [1]): 5.57 µM
- GI50 (SNB-75): 1.12 µM
- Total growth inhibition (TGI) (SNB-75): 3.14 µM
- CC50 (SNB-75; [1]): 8.84 µM
- GI50 (U251): 1.59 µM
- Total growth inhibition (TGI) (U251): 3 µM
- GI50 (LOX IMVI; Melanoma): 1.61 µM
- Total growth inhibition (TGI) (LOX IMVI; Melanoma): 2.97 µM
- CC50 (LOX IMVI; read-out: 50% lethal concentration (LC50), Melanoma): 5.5 µM
- GI50 (MALME-3M): 1.47 µM
- Total growth inhibition (TGI) (MALME-3M): 2.85 µM
- GI50 (SK-MEL-28): 1.8 µM
- Total growth inhibition (TGI) (SK-MEL-28): 3.37 µM
- CC50 (SK-MEL-28; [1]): 6.33 µM
- GI50 (UACC-257): 1.77 µM
- Total growth inhibition (TGI) (UACC-257): 3.57 µM
- GI50 (IGROV1): 1.39 µM
- Total growth inhibition (TGI) (IGROV1): 3.22 µM
- CC50 (IGROV1; [1]): 7.5 µM
- GI50 (OVCAR-3): 1.6 µM
- Total growth inhibition (TGI) (OVCAR-3): 3.09 µM
- CC50 (OVCAR-3; [1]): 5.95 µM
- GI50 (A498): 2.9 µM
- Total growth inhibition (TGI) (A498): 11.4 µM
- CC50 (A498; [1]): 38.1 µM
- GI50 (ACHN; Renal): 1.64 µM
- Total growth inhibition (TGI) (ACHN; Renal): 3.01 µM
- CC50 (ACHN; read-out: 50% lethal concentration (LC50), Renal): 5.52 µM
- GI50 (CAKI-1): 1.32 µM
- Total growth inhibition (TGI) (CAKI-1): 2.66 µM
- CC50 (CAKI-1; [1]): 5.39 µM
- GI50 (PC-3): 2.07 µM
- CC50 (PC-3; [1]): > 100 µM
- GI50 (MDA-MB-231; MDA-MB-231, Breast): 1.49 µM
- Total growth inhibition (TGI) (MDA-MB-231; MDA-MB-231/ATCC, Breast): 2.99 µM
- CC50 (MDA-MB-231; read-out: 50% lethal concentration (LC50), MDA-MB-231/ATCC, Breast): 5.97 µM
- GI50 (HS 578T; Breast): 1.91 µM
- Total growth inhibition (TGI) (HS 578T; Breast): 4.85 µM
- CC50 (HS 578T; [3]): > 100 µM
- GI50 (T-47D; Breast): 1.63 µM
- Total growth inhibition (TGI) (T-47D; Breast): 4.76 µM
- CC50 (T-47D; [3]): > 100 µM
- GI50 (MDA-MB-468): 1.74 µM
- Total growth inhibition (TGI) (MDA-MB-468): 3.31 µM
- CC50 (MDA-MB-468; [1]): 6.3 µM
